Test results published in patent US20080269202A1, “Novel 2,3-benzodiazepine derivatives and their use as antipsychotic agents” (Teva Pharmaceutical Industries Ltd., priority 2007, published 2008).
Read-outs that look alike come from different tables or passages of the source.

Assays:
PCP-induced stereotypy = PCP-induced stereotypy in mice; type: in vivo, CD1 mice; conditions: Mus musculus, read-out: PCP-stereotypy ED50 mg/kg po.
Text: (§1) Alterations in the mesocortical dopaminergic tract are thought to be responsible for the negative symptoms of schizophrenia (flattening of affect, poverty of speech, lack of volition and drive, loss of feeling, social withdrawal and decreased spontaneous movement). The best animal model of these symptoms is the behavioral changes induced by PCP (phencyclidine). The PCP-induced stereotypy and hypermotility was investigated in mice according to Ljungberg and Ungerstedt (Ljungberg, T., Ungerstedt, U. Pharmacol. Biochem. Behav., 1985, 23, 479,) and Jawitt (Jawitt, D. C. Amer. J. Psychiatry, 1991, 145, 1301). The stereotypy experiments were carried out in male CD1 mice weighing 20-25 g. The animals were starved for 16 hours before treatment without limitation of water availability. In the stereotypy studies, 30 min before treatment, mice were individually placed into small, transparent acrylic cages for habituation. Test substances were administered orally in a volume of 0.1 ml/10 g. 30 min later mice were treated with PCP with an intraperitoneal dose of 7 mg/kg. Stereotyped behavior was observed every 5th min for 60 min and scored from 0 to 4. The scores were summed individually, averaged and compared to the control group.
(§2) In both studies the ED50 values were calculated by the Litchfield-Wilcoxon's method (J. Pharmacol. Exp. Ther. 1949, 96, 49).

[1] = test system: conditioned avoidance responses; assay: conditioned avoidance: pole jumping test in rats; type: in vivo, Long-Evans rats
Text: For measuring the antipsychotic potential in a non-perturbed dopamine system the pole jumping assay was used (Cook, L., Catania, A. C. Fed. Proc. 1964, 23, 818.)
This method is an active avoidance learning test. Long-Evans rats, weighing 250-450 g, were used in the experiments. Rats are placed in a box (25×25×25 cm) on a grid floor in the center of which there is a pole. After a latency period, light is turned on for a given time then the floor is electrified to deliver an unpleasant footshock. Rats may learn to avoid the shock by jumping up to grasp the pole. As soon as the rat jumps up the light and shock are turned off. Each light-on period lasted for 15 s, shock time for 30 s with an intertrial interval of 15 s. 30 such trials per day were repeated during the learning period until animals reach a minimum of 80% avoidance rate. During the experimental sessions 20 trials/day were run. Test substances were administered ip. in a volume of 0.25 ml/100 g body weight. Significances were calculated by Student's t test.

[2] = test system: apomorphine-induced climbing; assay: apomorphine-induced climbing test in mice; type: in vivo, CD1 mice; conditions: for ED50: Mus musculus, read-out: Climbing ED50 (mg/kg ip.)
Protocol: (§3) Anti-apomorphine effects were investigated in the climbing test in mice mediated through the mesolimbic and stereotypy test in rats mediated through the nigrostriatal system. Conventional antipsychotics antagonize both apomorphine-induced behaviours, while known atypical antipsychotics are weaker against apomorphine stereotypy.
The climbing test was carried out according to Protais et al. (Protais, P. et al. Psychopharmacologia, 1976, 50, 1.) Stereotyped behavior was induced in food deprived (for 16 hours) male CD1 mice weighing 20-25 g body by apomorphine HCl (SIGMA) in a s.c. dose of 2 mg/kg. Mice were placed individually into cylinders having 12 cm diameter and consisting of vertical bars of 2 mm diameter where apomorphine treated animals tended to adopt a vertical position in contrary to vehicle treated controls. Test substances were applied ip. 30 min before apomorphine.
10 and 20 min after apomorphine treatment the climbing behaviour was evaluated by scores of 0-2. 10 mice/group were used. The scores of the two readings were summed individually, meaned and compared to the control. The ED50 values were calculated by Litchfield-Wilcoxon's method (Litchfield Jr. J. T., Wilcoxon, F. J. Pharmacol. Exp. Ther. 1949, 96, 49,).

catalepsy = catalepsy test in rats; type: in vivo, CDBR rats; conditions: for Catalapsy scores: dose 10 mg/kg ip, sum of 8 readings over 4 hours; for cataleptogenic potential: intraperitoneal, result in words
Text: In order to investigate the potential side effect profile, the catalepsy test in rats has been carried out according to Costall and Naylor (Costall, B., Naylor, R. J. Arzneimittelforschung/Drug Res., 1973, 23, 674).
Catalepsy is defined as a failure to correct an externally imposed, unusual posture over a prolonged time. Neuroleptics which have direct inhibitory action on the nigrostriatal dopamine system induce catalepsy. It may be reflected by the Parkinson-like extrapyramidal symptoms seen clinically with administration of classical antipsychotics. The experiments were carried out in male CDBR rats weighing 300-400 g. The volume of administration was 0.25 ml/100 g body weight. The animals were starved for 16 hours before treatment, water was delivered ad libitum. After intraperitoneal administration of the test substances, the forepaws of the rats were placed on a horizontal stainless steel bar elevated to 10 cm high, while the hind paws remained on a metal plate. The semi-automatic 5-channel catalepsy meter measured the time spent in this unusual posture by an electronic stop-clock. The catalepsy time was scored from 0 to 5 according to the time spent in the unusual posture. […] Means of groups were calculated.

[3] = test system: DOPA accumulation in eminentia mediana; assay: DOPA accumulation in eminentia mediana after NSD-1015; type: in vivo, Sprague-Dawley rats; conditions: for DOPA levels (pmol/mg prot): rat eminentia mediana, mean ± SEM
Protocol: Acute administration of atypical antipsychotics results in enhanced accumulation of dihydroxyphenylalanine (DOPA) in the […] after the inhibition of DOPA decarboxylase. In contrast, DOPA accumulation is not altered by the typical antipsychotics (Andersson, G, Albinsson, A, Pettersson, G, Arzneimittelforschung. 1990, 40, 237; Gudelsky, G. A., Meltzer, H. Y. Neuropsychopharmacology, 1989, 2, 45). The effect of the compound of Example 121 on DOPA-accumulation was measured by analyzing the levels of DOPA in […]. […] (EM), were dissected out from the brains on ice-cold plates and kept at -70° C. until they were assayed for DOPA by HPL-EC. Statistical analysis was carried out using one-way ANOVA followed by Duncan test.

[4] = test system: PCP-induced hypermotility; assay: PCP-induced hypermotility (motor activity meter) in mice; type: in vivo; conditions: Mus musculus, read-out: PCP-hypermotility ED50 mg/kg po.
Text: as §1
The motor activity was measured in a 4-channel activity meter. The apparatus consisted of acrylic cages (40×40×32 cm) equipped with 16 pairs of infrared photocells. The photocells' beam, when broken, signaled a count, which was then recorded by a computer. A 5 mg/kg intraperitoneal dose of PCP was administered 5 min before the experiment. This dose of PCP induces 110-120% increase of the spontaneous motor activity. Test substances were administered orally 15 min before experiment, and mice were investigated individually in the experimental cages for 60 min. 10 mice/group were used. The total counts for each experimental group were compared to the vehicle treated control group.
as §2

[5] = test system: apomorphine-induced stereotyped behavior; assay: apomorphine-induced stereotypy; type: in vivo, CD1 mice; conditions: for ED50: Mus musculus, read-out: Stereotypy ED50 (mg/kg po.)
Text: as §3
Apomorphine-induced stereotypy was investigated according to Costall and Naylor (B. Costall and R. J. Naylor, Eur. J. Pharmacol. 1972, 18, 95) in male CD1 mice of 20-25 g body weight after 16 hours deprivation of food. 30 min before treatment mice were individually placed into small, transparent acrylic cages for habituation. Test substances were administered orally in a volume of 0.1 ml/10 g. 30 min later mice were treated with apomorphine HCl (SIGMA) in a subcutaneous dose of 2 mg/kg. […] The scores were summed individually, meaned and compared to the control group. The ED50 values were calculated by Litchfield-Wilcoxon's method (J. Pharmacol. Exp. Ther. 1949, 96, 49,).

[6] = test system: PCP-induced disruption of PPI; assay: PCP-induced disruption of pre-pulse inhibition (PPI); conditions: for reversal of PCP-induced disruption of PPI: PCP 8 mg/kg, C57B1/6J mice
Text: Male C57B1/6J mice from Jackson Laboratories (Bar Harbor, Me.) were used in this study. Mice were received at 6-weeks of age. Upon receipt, mice were assigned unique identification numbers (tail marked) and were group housed in OPTImice cages. All animals remained housed in groups of four during the remainder of the study. […] During the period of acclimation, mice were examined on a regular basis, handled, and weighed to assure adequate health and suitability. Mice were maintained on a 12/12 light/dark cycle with the light on at 6:00 a.m. The room temperature was maintained between 20 and 23° C. with a relative humidity maintained between 30% and 70%. Food and water were provided ad libitum for the duration of the study. In each test, animals were randomly assigned across treatment groups.
All compounds were injected i.p. at a dose volume of 10 ml/kg. […] Phenylcyclohexylpiperidine (PCP) (8 mg/kg) was dissolved in sterile water.
The acoustic startle measured an unconditioned reflex response to external auditory stimulation. […] Mice were placed in the PPI chambers (Med Associates) for a 5 min session of white noise (70 dB) habituation.
After the acclimation period the test session was automatically started. The session started with a habituation block of 6 presentations of the startle stimulus alone, followed by 10 PPI blocks of 6 different types of trials. Trial types are: null (no stimuli), startle (120 dB), startle plus prepulse (4, 8 and 12 dB over background noise i.e. 74, 78 or 82 dB) and prepulse alone (82 dB). Trial types were presented at random within each block.
Each trial started with a 50 ms null period during which baseline movements were recorded. There was a subsequent 20 ms period during which prepulse stimuli were presented and responses to the prepulse measured. After further 100 ms the startle stimuli were presented for 40 ms and responses recorded for 100 ms from startle onset. Responses were sampled every ms. The inter-trial interval was variable with an average of 15 s (range from 10 to 20 s). In startle alone trials the basic auditory startle was measured and in prepulse plus startle trials the amount of inhibition of the normal startle was determined and expressed as a percentage of the basic startle response (from startle alone trials), excluding the startle response of the first habituation block.
Data were analyzed by analysis of variance (ANOVA) followed by post-hoc comparisons with Fisher Tests when appropriate. An effect was considered significant if p<0.05. Data are represented as the mean and standard error to the mean.

PCP-induced locomotion = assay: PCP induced locomotor activity test (open field); type: in vivo, mice; conditions: all doses (3, 7, 14, 28, 40 mg/kg) by gavage, PCP 5 mg/kg, vs vehicle
Protocol: The effects of compounds 121 and 183, administered orally, were also evaluated in the PCP induced locomotor activity test. Compound 121 was designated as “Compound A” and Compound 183 was designated as “Compound B” for purposes of this study. In general, the study aimed to test Compounds A and B for potential antipsychotic activity in PCP treated mice.
Compounds A & B were dissolved in 3% Tween: Compound A: 1, 3, 6, 10, and 15 mg/kg; Compound B: 3, 7, 14, 28, and 40 mg/kg; Compounds A+B were administered by gavage.
PCP (5 mg/kg) was dissolved in sterile injectable water.
The open field (“OF”) test assessed both anxiety and locomotor behavior. The open field chambers are Plexiglas square chambers (27.3×27.3×20.3 cm; Med Associates Inc., St Albans, Vt.) surrounded by infrared photobeams (16×16×16) to measure horizontal and vertical activity. The analysis was configured to divide the open field into a center and periphery zone. Distance traveled was measured from horizontal beam breaks as the mouse moved whereas rearing activity was measured from vertical beam breaks.
Mice were brought to the activity experimental room for at least 1 hr acclimation to the experimental room conditions prior to testing. […]
Data was analyzed to show baseline activity (activity during the 30 min prior to PCP injection) and PCP-induced activity (activity during the 60 min after PCP injection).

[7] = mice, ip. 30 min before apomorphine 2 mg/kg s.c.

| SMILES | ED50 (PCP-induced stereotypy) [mg/kg] | MED (mg/kg ip), minimal effective dose (stat. sign.) [1] [mg/kg] | ED50 [2] [mg/kg] | Catalapsy scores (catalepsy) | cataleptogenic potential (catalepsy) | DOPA levels (pmol/mg prot) ([3]; 20 mg/kg ip) | ED50 [4] [mg/kg] | ED50 [5] [mg/kg] | ED50 [2, 7] [mg/kg] | melting point [°C] | sedation and lethargy in the mice ([6]; 15 mg/kg i.p. (high dose)) | reversal of PCP-induced disruption of PPI ([6]; 5, 10, and 15 mg/kg i.p.) | reversal of PCP-induced disruption of PPI ([6]; all doses (1.5, 5, 10, 15 mg/kg) i.p.) | effect on PCP induced locomotion (PCP-induced locomotion) | inhibition of apomorphine-induced climbing ([2]; mice, result in words) | DOPA levels (pmol/mg prot) ([3]; 10 mg/kg ip, NSD-1015 90 min after treatment) | effect on levels of DOPA in the EM of rats ([3]; result in words, vs saline) | ED50 ([4]; mice, po. 15 min before experiment, PCP 5 mg/kg ip) [mg/kg] | ED50 ([5]; mice, po. 30 min before apomorphine 2 mg/kg s.c.) [mg/kg] | inhibition of apomorphine-induced stereotyped behavior ([5]; mice, result in words) |
| --- | --- | --- | --- | --- | --- | --- | --- | --- | --- | --- | --- | --- | --- | --- | --- | --- | --- | --- | --- | --- |
| CN1CCN(C2=Nc3cc(Cl)ccc3Nc3ccccc32)CC1 [Clozapine, reference compound] | 3.76 | 2 | 2.64 | 10:0.14 | lack cataleptogenic potential | 87.4 ± 9.5 | 1.81 | 22.9 | – | – | – | – | – | – | – | – | – | – | – | – |
| COc1cc2c(cc1OC)C(c1ccc(NC(C)=O)cc1)=NN(c1nccs1)[C@H](C)C2 [Example 183] | – | – | – | – | – | – | – | – | 8.7 | 156 to 158 | caused sedation and lethargy | significantly reversed | significantly reversed | significantly decreased | – | – | – | – | – | – |
| CN(C)CCCN1c2ccccc2Sc2ccc(Cl)cc21 [Chlorpromazine, reference compound] | – | – | – | 10:8.7 | induces severe catalepsy | – | – | – | 1.2 | – | – | – | – | – | inhibited both behaviors | 56.4 ± 4.1 | had no effect | 1.86 | 3.6 | inhibited both behaviors |
